The structures appear in SMILES notation. Where “and” joins values, the source holds several entries; their conditions need not be identical. Equal values may be shown once. Read-outs that look alike come from different tables or passages of the source.

Assay [1] has as its system Ba/F3-EGFR-WT. Description: Ba/F3 cell survival assay, WT EGFR. The assay is classed as cell-based. How it is done:
(§1) 293T cells from ATCC were transfected with pBABEpuro expression constructs for WT EGFR or EGFR-insSVD and pCL-Eco packaging vector using Fugene-6 transfection reagent from Promega. Plates were incubated at 37° C. for 48 h. Retrovirus was harvested by filtering the media supernatant through a 0.45 μm filter.
(§2) Ba/F3 cells purchased from DSMZ were grown in RPMI+10% FBS+10 ng/mL IL-3 and infected with filtered retroviral supernatant at a 1:2 dilution. Polybrene was added to a concentration of 8 μg/mL, plates were spun for 90 min, and incubated overnight at 37° C. 2 μg/mL puromycin was added to the infected cells 24 h after infection and cells were continually grown in the presence of puromycin and 10 ng/mL IL-3. Following stably expressing Ba/F3 cell lines were generated: Ba/F3-EGFR-WT, Ba/F3-EGFR-insSVD, (Ba/F3-vector-control).
The cells ectopically expressing WT EGFR or EGFR-insSVD were plated with 10 ng/mL Millipore Culture grade EGF. The cells ectopically expressing pBABEpuro empty vector were plated with 10 ng/mL IL-3.
100 nL of compound was added to each well using a 100 nL pin head, and plates were incubated at 37° C. for 48 h.
Cell viability was measured by adding 20 μL of Cell Titer-Glo Luminescent Cell Viability Reagent diluted 1:3 in PBS. Plates were sealed with Perkin Elmer Top-Seal, inverted several times to mix, and immediately centrifuged at 1000 rpm for 2 min.

Assay [2] deals with Ba/F3-EGFR-insSVD. Description: Ba/F3 cell survival assay, EGFR-insSVD. The assay is classed as cell-based. As to the method:
as §1, §2
For cell survival assays, Ba/F3 cells were grown to a density of 1-2 million cells per mL, spun down and resuspended in media without IL-3, and replated at a concentration 200,000-500,000 cells per mL. The cells ectopically expressing WT EGFR or EGFR-insSVD were plated with 10 ng/mL Millipore Culture grade EGF. The cells ectopically expressing pBABEpuro empty vector were plated with 10 ng/mL IL-3.
2 days later, cells were plated in 50 μL in a 384 well plate at a concentration of 4000 cells per well for cells assayed in the absence of IL-3 and 2000 cells per well for cells assayed in the presence of IL-3. 100 nL of compound was added to each well using a 100 nL pin head, and plates were incubated at 37° C. for 48 h.
Cell viability was measured by adding 20 μL of Cell Titer-Glo Luminescent Cell Viability Reagent diluted 1:3 in PBS. Plates were sealed with Perkin Elmer Top-Seal, inverted several times to mix, and immediately centrifuged at 1000 rpm for 2 min. Plates were incubated in low light conditions for 8-10 min and luminescence was measured.

Assay [3] addresses human Bub1 (Homo sapiens (Human), UniProt O43683). Description: Bub1 high ATP kinase assay (TR-FRET). The assay is classed as biochemical. An excerpt:
Bub1-inhibitory activity of compounds of the present invention at a high ATP concentration was quantified employing the Bub1 TR-FRET high ATP kinase assay as described in the following paragraphs.
N-terminally His6-tagged recombinant catalytic domain of human Bub1 (amino acids 704-1085), expressed in insect cells (Hi5) and purified by Ni-NTA affinity chromatography and subsequent size exclusion chromatography, was used as enzyme.
On the technique in general: TR-FRET usually uses a lanthanide donor and a delayed reading to cut background.

The mark [4] stands for this setting: Mus musculus, BaF3, 48 h, read-out: BA/F3 (wild type) IC50, cell viability, Cell Titer-Glo, 48 h, with 10 ng/mL EGF, without IL-3.
Setting [5] is: Mus musculus, BaF3, 48 h, read-out: BA/F3 (insSVD) IC50, cell viability, Cell Titer-Glo, 48 h, with 10 ng/mL EGF, without IL-3.
Setting [6] is: read-out: Bub1 high ATP (2 mM) IC50, 2 mM ATP.
The mark [7] stands for this setting: read-out: BA/F3 (wild type) IC50, cell viability, Cell Titer-Glo, 48 h, with 10 ng/mL EGF, without IL-3.
The mark [8] stands for this setting: read-out: BA/F3 (insSVD) IC50, cell viability, Cell Titer-Glo, 48 h, with 10 ng/mL EGF, without IL-3.
Where [9] appears, read: Bub1 high ATP (2 mM) IC50, 2 mM ATP.

Chain of human Bub1 (O43683 704-1085): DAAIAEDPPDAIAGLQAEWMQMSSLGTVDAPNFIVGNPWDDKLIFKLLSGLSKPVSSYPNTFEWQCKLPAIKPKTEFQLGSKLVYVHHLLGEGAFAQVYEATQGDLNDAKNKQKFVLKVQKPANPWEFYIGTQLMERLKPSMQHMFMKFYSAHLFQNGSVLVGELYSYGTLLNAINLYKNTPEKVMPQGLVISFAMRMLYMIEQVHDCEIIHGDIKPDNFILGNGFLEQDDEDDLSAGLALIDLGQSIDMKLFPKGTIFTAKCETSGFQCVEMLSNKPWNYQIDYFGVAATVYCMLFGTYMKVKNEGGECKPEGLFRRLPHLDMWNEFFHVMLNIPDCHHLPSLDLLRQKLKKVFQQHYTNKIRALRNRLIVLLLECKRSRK

As to `Cc1c(Cl)cc(F)cc1Nc1c(-c2ccncc2OCC2CCO2)[nH]c2c1C(=O)NCC2` (racemic) [Example 40, 3-(3-chloro-5-fluoro-2-methylanilino)-2-{3-[(oxetan-2-yl)methoxy]pyridin-4-yl}-1,5,6,7-tetrahydro-4H-pyrrolo[3,2-c]pyridin-4-one], the results for the IC50 in assay [1] (setting [4]), in assay [2] (setting [5]) and in assay [3] (setting [6]) were 2.98 µM, 0.115 µM and 10.5 µM, respectively.

In the case of `COc1c(F)cccc1Nc1c(-c2ccncc2OCC2OCC2(C)C)[nH]c2c1C(=O)NCC2` (single isomer, unassigned; (+)) [Example 54, (+)-2-{3-[(3,3-dimethyloxetan-2-yl)methoxy]pyridin-4-yl}-3-(3-fluoro-2-methoxyanilino)-1,5,6,7-tetrahydro-4H-pyrrolo[3,2-c]pyridin-4-one], the IC50 in assay [1] (setting [7]) is 0.498 µM; in assay [2] (setting [8]), 0.0309 µM; in assay [3] (setting [6]), more than 20 µM.

On to `O=C1NCCc2[nH]c(-c3ccncc3OCCC3CCO3)c(Nc3cccc(Cl)c3Cl)c21` (single isomer, unassigned) [Example 64, 3-(2,3-dichloroanilino)-2-(3-{2-[oxetan-2-yl]ethoxy}pyridin-4-yl)-1,5,6,7-tetrahydro-4H-pyrrolo[3,2-c]pyridin-4-one], for which the IC50 in assay [1] (setting [7]) stood at 0.726 µM; in assay [2] (setting [8]), 0.023 µM; in assay [3] (setting [9]), 5.38 µM.

`COc1c(Cl)cc(F)cc1Nc1c(-c2ccncc2OCC2CCO2)[nH]c2c1C(=O)NCC2` (racemic) [Example 65, 3-(3-chloro-5-fluoro-2-methoxyanilino)-2-(3-{[oxetan-2-yl]methoxy}pyridin-4-yl)-1,5,6,7-tetrahydro-4H-pyrrolo[3,2-c]pyridin-4-one]: the IC50 in assay [1] (setting [4]) was 0.911 µM; in assay [2] (setting [5]), 0.0898 µM; in assay [3] (setting [6]), more than 20 µM.

Consider `COc1c(Cl)cc(F)cc1Nc1c(-c2ccncc2OCC2CCO2)[nH]c2c1C(=O)NCC2` (single isomer, unassigned) [Example 66, 3-(3-chloro-5-fluoro-2-methoxyanilino)-2-(3-{[oxetan-2-yl]methoxy}pyridin-4-yl)-1,5,6,7-tetrahydro-4H-pyrrolo[3,2-c]pyridin-4-one], for which the IC50 in assay [1] (setting [7]) was 1.5 µM; in assay [2] (setting [8]) it was 0.14 µM; in assay [3] (setting [9]), more than 20 µM.

`CCC1(COc2cnccc2-c2[nH]c3c(c2Nc2cccc(Cl)c2OC)C(=O)NCC3)COC1` [Example 22, 3-(3-chloro-2-methoxyanilino)-2-{3-[(3-ethyloxetan-3-yl)methoxy]pyridin-4-yl}-1,5,6,7-tetrahydro-4H-pyrrolo[3,2-c]pyridin-4-one]: the results for the IC50 in assay [1] (setting [4]), in assay [2] (setting [5]) and in assay [3] (setting [6]) were 0.852 µM, 0.0572 µM and 3.83 µM, respectively.

Regarding `CC1(C)COC1COc1cnccc1-c1[nH]c2c(c1Nc1cccc(Cl)c1OC(F)F)C(=O)NCC2` (single isomer, unassigned) [Example 72, 3-[3-chloro-2-(difluoromethoxy)anilino]-2-(3-{[3,3-dimethyloxetan-2-yl]methoxy}pyridin-4-yl)-1,5,6,7-tetrahydro-4H-pyrrolo[3,2-c]pyridin-4-one], the results for the IC50 in assay [1] (setting [7]), in assay [2] (setting [8]) and in assay [3] (setting [9]) were 2.74 µM, 0.436 µM and more than 20 µM, respectively.

For the compound `COc1c(Cl)cccc1Nc1c(-c2ccncc2OCC2(C)CCN2C)[nH]c2c1C(=O)NCC2` (stereo not drawn) [Example 31, 3-(3-chloro-2-methoxyanilino)-2-{3-[(1,2-dimethylazetidin-2-yl)methoxy]pyridin-4-yl}-1,5,6,7-tetrahydro-4H-pyrrolo[3,2-c]pyridin-4-one], the IC50 was determined as 0.391 µM in assay [1] (setting [4]), 0.0237 µM in assay [2] (setting [5]) and 7.54 µM in assay [3] (setting [6]).

As for `COc1c(F)cccc1Nc1c(-c2ccncc2OCC2CCO2)[nH]c2c1C(=O)NCC2` (racemic) [Example 4, 3-(3-fluoro-2-methoxyanilino)-2-{3-[(oxetan-2-yl)methoxy]pyridin-4-yl}-1,5,6,7-tetrahydro-4H-pyrrolo[3,2-c]pyridin-4-one], the IC50 in assay [1] (setting [4]) stood at 0.939 µM; in assay [2] (setting [5]), 0.0593 µM; in assay [3] (setting [6]) it was 17.4 µM.

For `COc1c(Cl)cccc1Nc1c(-c2ccncc2OCC2OCC2(C)C)[nH]c2c1C(=O)NCC2` (single isomer, unassigned; (-)) [Example 51, (−)-3-(3-chloro-2-methoxyanilino)-2-{3-[(3,3-dimethyloxetan-2-yl)methoxy]pyridin-4-yl}-1,5,6,7-tetrahydro-4H-pyrrolo[3,2-c]pyridin-4-one], the IC50 in assay [1] (setting [7]) was 1.05 µM; in assay [2] (setting [8]), 0.153 µM; in assay [3] (setting [6]), 17.1 µM and 17.3 µM and > 20 µM.

For `COc1c(Nc2c(-c3ccncc3OCC3CCO3)[nH]c3c2C(=O)NCC3)ccc(F)c1Cl` (single isomer, unassigned; (+)) [Example 15, (+)-3-(3-chloro-4-fluoro-2-methoxyanilino)-2-{3-[(oxetan-2-yl)methoxy]pyridin-4-yl}-1,5,6,7-tetrahydro-4H-pyrrolo[3,2-c]pyridin-4-one], the IC50 in assay [1] (setting [7]) is 2.38 µM; in assay [2] (setting [8]) it was 0.168 µM; in assay [3] (setting [6]), more than 20 µM.

On to `Cc1c(Cl)cccc1Nc1c(-c2ccncc2OC[C@@H]2CCO2)[nH]c2c1C(=O)NCC2` [Example 8, 3-(3-chloro-2-methylanilino)-2-(3-{[(2S)-oxetan-2-yl]methoxy}pyridin-4-yl)-1,5,6,7-tetrahydro-4H-pyrrolo[3,2-c]pyridin-4-one], for which the IC50 amounted to 0.23 µM in assay [1] (setting [4]), 0.0125 µM in assay [2] (setting [5]) and 7.61 µM in assay [3] (setting [6]).

Turning to `Cc1c(Cl)cccc1Nc1c(-c2ccncc2OCC2CCO2)[nH]c2c1C(=O)NCC2` (racemic) [Example 7, 3-(3-chloro-2-methylanilino)-2-{3-[(oxetan-2-yl)methoxy]pyridin-4-yl}-1,5,6,7-tetrahydro-4H-pyrrolo[3,2-c]pyridin-4-one], the IC50 in assay [1] (setting [4]) came out at 0.82 µM; in assay [2] (setting [5]), 0.0482 µM; in assay [3] (setting [6]), 2.63 µM.

`COc1c(Br)cccc1Nc1c(-c2ccncc2OCC2CCO2)[nH]c2c1C(=O)NCC2` (racemic) [Example 33, 3-(3-bromo-2-methoxyanilino)-2-{3-[(oxetan-2-yl)methoxy]pyridin-4-yl}-1,5,6,7-tetrahydro-4H-pyrrolo[3,2-c]pyridin-4-one]: the IC50 in assay [1] (setting [4]) is 1.12 µM; in assay [2] (setting [5]) it was 0.0328 µM; in assay [3] (setting [6]), 8.06 µM.

Turning to `CC1(C)COC1COc1cnccc1-c1[nH]c2c(c1Nc1cccc(Cl)c1OC(F)F)C(=O)NCC2` (single isomer, unassigned) [Example 73, 3-[3-chloro-2-(difluoromethoxy)anilino]-2-(3-{[3,3-dimethyloxetan-2-yl]methoxy}pyridin-4-yl)-1,5,6,7-tetrahydro-4H-pyrrolo[3,2-c]pyridin-4-one], the IC50 in assay [1] (setting [4]) was 1.91 µM; in assay [2] (setting [8]), 0.0923 µM; in assay [3] (setting [6]) it was more than 20 µM.

As for `Cc1c(Cl)cc(F)cc1Nc1c(-c2ccncc2OCC2CCO2)[nH]c2c1C(=O)NCC2` (single isomer, unassigned) [Example 42, 3-(3-chloro-5-fluoro-2-methylanilino)-2-{3-[(oxetan-2-yl)methoxy]pyridin-4-yl}-1,5,6,7-tetrahydro-4H-pyrrolo[3,2-c]pyridin-4-one], the IC50 was 0.553 µM in assay [1] (setting [7]), 0.0725 µM in assay [2] (setting [8]) and more than 20 µM in assay [3] (setting [9]).

As for `COc1c(Cl)cccc1Nc1c(-c2ccncc2OCC2OCC2(C)C)[nH]c2c1C(=O)NCC2` (racemic) [Example 49, 3-(3-chloro-2-methoxyanilino)-2-{3-[(3,3-dimethyloxetan-2-yl)methoxy]pyridin-4-yl}-1,5,6,7-tetrahydro-4H-pyrrolo[3,2-c]pyridin-4-one], the IC50 in assay [1] (setting [4]) is 0.426 µM; in assay [2] (setting [5]) it was 0.0125 µM; in assay [3] (setting [6]), more than 20 µM.
